Source: US20260092057A1, “BCL-XL/BCL-2 DEGRADERS AND USES THEREOF” (Kymera Therapeutics, Inc., priority 2022, published 2026)
Where two headings read alike, the source gives them in different places.

Key:
Type in all cases: cell-based
BCL-XL = target: T1, BCL-XL (Homo sapiens, UniProt Q07817); assay: BCL-XL degradation assay in MOLT-4 cells (ELISA, 6 h); details: for DC50: read-out: Bcl-xL ELISA in MOLT-4 degradation 6 h: External Abs-DC50
T1 construct: BCL-XL degradation results in MOLT-4 cells for compounds of the invention; endogenous in cells; host or cells: MOLT-4
T1 sequence (Q07817 whole entry): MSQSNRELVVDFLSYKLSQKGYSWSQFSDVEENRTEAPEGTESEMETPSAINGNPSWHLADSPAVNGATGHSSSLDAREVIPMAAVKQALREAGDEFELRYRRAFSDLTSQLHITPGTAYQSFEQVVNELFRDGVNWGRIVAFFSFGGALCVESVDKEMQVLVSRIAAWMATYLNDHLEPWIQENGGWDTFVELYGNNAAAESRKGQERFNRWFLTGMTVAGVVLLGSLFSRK

MOLT-4 cells = assay: CTG (CellTiter-Glo) cell viability assay, MOLT-4; details: MOLT-4, 3 day, read-out: CTG Cell Viability Assay - MOLT-4 3 day: Average external-IC50
In short: (§1)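 Cells seeded at 10,000 per well, then exposed to a 9-point 1:3 dilution series from 10 µM top concentration (0.2% DMSO) for 3 days at 37 °C, 5% CO2. Viability measured by CellTiter-Glo luminescence; IC50 from a three-parameter logistic fit.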

Caki-2 cells = assay: CTG (CellTiter-Glo) cell viability assay, Caki-2; details: Caki-2, 3-day, read-out: CTG Chempartner/PHA- Caki-2 3-day: Average external-IC50
In short: as §1

| Bcl-xL ELISA in MOLT-4 degradation 6 h: Dmax % (BCL-XL) | DC50 (BCL-XL) | IC50 (MOLT-4 cells) | Dmax (BCL-XL) | IC50 (MOLT-4 cells; Homo sapiens, MOLT-4, 72 h) | SMILES | IC50 (Caki-2 cells) | IC50 (Caki-2 cells; Homo sapiens, CAKI-2, 72 h) |
| --- | --- | --- | --- | --- | --- | --- | --- |
| C (C (<50%)) | 0.5 to 1 µM | 0.1 to 1 µM |  |  | Cc1ncsc1-c1ccc(CNC(=O)[C@@H]2C[C@@H](O)CN2C(=O)[C@@H](NC(=O)CCCCCCC(=O)N2CCN(C[C@]3(C)CCC(c4ccc(Cl)cc4)=C(CN4CCN(c5ccc(C(=O)NS(=O)(=O)c6ccc(NCCCN7CCOCC7)c(S(=O)(=O)C(F)(F)F)c6)c(Oc6cnc7[nH]ccc7c6)c5)CC4)C3)CC2)C(C)(C)C)cc1 [I-134] | < 5 µM |  |
|  | 0.01 to 0.1 µM |  | > 75% | 0.1 to 1 µM | C#Cc1ccc([C@H](C)NC(=O)[C@@H]2C[C@@H](O)CN2C(=O)[C@@H](NC(=O)CCCCCC(=O)N2CCN(CC[C@H](CSc3ccccc3)Nc3ccc(S(=O)(=O)NC(=O)c4ccc(N5CCC([C@@H](O)c6ccccc6-c6ccc(Cl)cc6)CC5)cc4)cc3S(=O)(=O)C(F)(F)F)CC2)C(C)(C)C)cc1 (single isomer, unassigned) [I-29] |  | 10 to 30 µM |
|  | 0.5 to 1 µM |  | 50 to 75% | > 3 µM | Cc1ncsc1-c1ccc([C@H](C)NC(=O)[C@@H]2CC(O)CN2C(=O)[C@@H](NC(=O)CCCCCCC(=O)N2CCN(c3ccc(-c4ccc(Cl)cc4)c(CN4CCN(c5ccc(C(=O)NS(=O)(=O)c6ccc(N[C@H](CCN(C)C)CSc7ccccc7)c([N+](=O)[O-])c6)cc5)CC4)c3)CC2)C(C)(C)C)cc1 (stereo partly shown) [I-4] |  | > 30 µM |
|  | < 0.01 µM |  | > 75% | < 0.1 µM | C#Cc1ccc([C@H](CO)NC(=O)[C@@H]2C[C@@H](O)CN2C(=O)[C@@H](NC(=O)CCCCCC(=O)N2CCN(CCCNc3ccc(S(=O)(=O)NC(=O)c4ccc(N5CCN(CC6=C(c7ccc(Cl)cc7)CC(C)(C)CC6)CC5)cc4Oc4cnc5[nH]ccc5c4)cc3S(=O)(=O)C(F)(F)F)CC2)C(C)(C)C)cc1 [I-102] |  | > 30 µM |
|  | 0.5 to 1 µM |  | < 50% | > 3 µM | Cc1ncsc1-c1ccc([C@H](C)NC(=O)[C@@H]2C[C@@H](O)CN2C(=O)[C@@H](NC(=O)CCCCCC(=O)N2CCN(Cc3ccc(-c4ccc(Cl)cc4)c(CN4CCN(c5ccc(C(=O)NS(=O)(=O)c6ccc(N[C@H](CCN(C)C)CSc7ccccc7)c([N+](=O)[O-])c6)cc5)CC4)c3)CC2)C(C)(C)C)cc1 [I-7] |  | > 30 µM |
|  | 0.5 to 1 µM |  | 50 to 75% | > 3 µM | Cc1ncsc1-c1ccc([C@H](C)NC(=O)[C@@H]2C[C@@H](O)CN2C(=O)[C@@H](NC(=O)CCCCCCN2CCN(CC[C@H](CSc3ccccc3)Nc3ccc(S(=O)(=O)NC(=O)c4ccc(N5CCN(Cc6ccccc6-c6ccc(Cl)cc6)CC5)cc4)cc3[N+](=O)[O-])CC2)C(C)(C)C)cc1 [I-13] |  | > 30 µM |
|  | 0.5 to 1 µM |  | < 50% | > 3 µM | Cc1ncsc1-c1ccc([C@H](C)NC(=O)[C@@H]2C[C@@H](O)CN2C(=O)[C@@H](NC(=O)CCCCCCN(C)CC[C@H](CSc2ccccc2)Nc2ccc(S(=O)(=O)NC(=O)c3ccc(N4CCN(Cc5ccccc5-c5ccc(Cl)cc5)CC4)cc3)cc2[N+](=O)[O-])C(C)(C)C)cc1 [I-14] |  | > 30 µM |
|  | 0.5 to 1 µM |  | < 50% | > 3 µM | Cc1ncsc1-c1ccc([C@H](C)NC(=O)[C@@H]2C[C@@H](O)CN2C(=O)[C@@H](NC(=O)C2CCN(c3ccc(NC(=O)c4ccc(-c5ccc(Cl)cc5)c(CN5CCN(c6ccc(C(=O)NS(=O)(=O)c7ccc(N[C@H](CCN(C)C)CSc8ccccc8)c([N+](=O)[O-])c7)cc6)CC5)c4)cc3)CC2)C(C)(C)C)cc1 [I-21] |  | > 30 µM |
|  | 0.5 to 1 µM |  | < 50% | > 3 µM | Cc1ncsc1-c1ccc([C@H](C)NC(=O)[C@@H]2C[C@@H](O)CN2C(=O)[C@@H](NC(=O)CCCCCN(C)CCCNc2ccc(S(=O)(=O)NC(=O)c3ccc(N4CCN(CC5=C(c6ccc(Cl)cc6)CC(C)(C)CC5)CC4)cc3Oc3cnc4[nH]ccc4c3)cc2S(=O)(=O)C(F)(F)F)C(C)(C)C)cc1 [I-69] |  | > 30 µM |
|  |  |  |  | 1 to 3 µM | Cc1ncsc1-c1ccc([C@H](C)NC(=O)[C@@H]2C[C@@H](O)CN2C(=O)[C@@H](NC(=O)CCCCCC(=O)N(C)CC[C@H](CSc2ccccc2)Nc2ccc(S(=O)(=O)NC(=O)c3ccc(N4CCC(C(O)c5ccccc5-c5ccc(Cl)cc5)CC4)cc3)cc2S(=O)(=O)C(F)(F)F)C(C)(C)C)cc1 (stereo partly shown) [I-71] |  | 10 to 30 µM |
|  |  |  |  | > 3 µM | Cc1ncsc1-c1ccc([C@H](C)NC(=O)[C@@H]2C[C@@H](N)CN2C(=O)[C@@H](NC(=O)C2CCN(CCCNc3ccc(S(=O)(=O)NC(=O)c4ccc(N5CCC([C@@H](O)c6ccccc6-c6ccc(Cl)cc6)CC5)cc4Oc4cnc5[nH]ccc5c4)cc3S(=O)(=O)C(F)(F)F)CC2)C(C)(C)C)cc1 (single isomer, unassigned) [I-91] |  | > 30 µM |
|  |  |  |  | > 3 µM | Cc1ncsc1-c1ccc([C@H](C)NC(=O)[C@@H]2C[C@@H](O)CN2C(=O)[C@@H](NC(=O)CCC2CCN(CCCNc3ccc(S(=O)(=O)NC(=O)c4ccc(N5CCN([C@H](O)c6ccccc6-c6ccc(Cl)cc6)CC5)cc4Oc4cnc5[nH]ccc5c4)cc3S(=O)(=O)C(F)(F)F)CC2)C(C)(C)C)cc1 [I-129] |  | > 30 µM |
|  |  |  |  | > 3 µM | Cc1ncsc1-c1ccc([C@H](C)NC(=O)[C@@H]2C[C@@H](O)CN2C(=O)[C@@H](NC(=O)CCCCCC(=O)N2CCC(NCCCNc3ccc(S(=O)(=O)NC(=O)c4ccc(N5CCN(CC6=C(c7ccc(Cl)cc7)CC(C)(C)CC6)CC5)cc4Oc4cnc5[nH]ccc5c4)cc3S(=O)(=O)C(F)(F)F)CC2)C(C)(C)C)cc1 [I-87] |  | > 30 µM |
|  |  |  |  | > 3 µM | Cc1ncsc1-c1ccc([C@H](C)NC(=O)[C@@H]2C[C@@H](O)CN2C(=O)[C@@H](NC(=O)CCCCCC(=O)N2CCN(c3ccc(-c4ccc(Cl)cc4)c(CN4CCN(c5ccc(C(=O)NS(=O)(=O)c6ccc(NCCCN(C)C)c(S(=O)(=O)C(F)(F)F)c6)c(Oc6cnc7[nH]ccc7c6)c5)CC4)c3)CC2)C(C)(C)C)cc1 [I-99] |  | > 30 µM |
|  |  |  |  | > 3 µM | Cc1ncsc1-c1ccc([C@H](C)NC(=O)[C@@H]2C[C@@H](O)CN2C(=O)[C@@H](NC(=O)C2CCN(c3ccc(N(C)CCCNc4ccc(S(=O)(=O)NC(=O)c5ccc(N6CCN(CC7=C(c8ccc(Cl)cc8)CC(C)(C)CC7)CC6)cc5Oc5cnc6[nH]ccc6c5)cc4S(=O)(=O)C(F)(F)F)cc3)CC2)C(C)(C)C)cc1 [I-89] |  | > 30 µM |
|  |  |  |  | 0.1 to 1 µM | Cc1ncsc1-c1ccc([C@H](C)NC(=O)[C@@H]2C[C@@H](O)CN2C(=O)[C@@H](NC(=O)CCCCCC(=O)N[C@H]2CCN(CCCNc3ccc(S(=O)(=O)NC(=O)c4ccc(N5CCN(CC6=C(c7ccc(Cl)cc7)CC(C)(C)CC6)CC5)cc4Oc4cnc5[nH]ccc5c4)cc3S(=O)(=O)C(F)(F)F)C2)C(C)(C)C)cc1 [I-96] |  | > 30 µM |
|  |  |  |  | 1 to 3 µM | Cc1ncsc1-c1ccc([C@H](C)NC(=O)[C@@H]2C[C@@H](O)CN2C(=O)[C@@H](NC(=O)CCCCCC(=O)N(C)CCCNc2ccc(S(=O)(=O)NC(=O)c3ccc(N4CCC([C@H](O)c5ccccc5-c5ccc(Cl)cc5)CC4)cc3Oc3cnc4[nH]ccc4c3)cc2S(=O)(=O)C(F)(F)F)C(C)(C)C)cc1 (single isomer, unassigned) [I-58] |  | > 30 µM |
|  |  |  |  | > 3 µM | Cc1ncsc1-c1ccc([C@H](C)NC(=O)[C@@H]2C[C@@H](O)CN2C(=O)[C@@H](NC(=O)CCCCC(=O)N2CCC3(CCN(Cc4ccc(-c5ccc(Cl)cc5)c(CN5CCN(c6ccc(C(=O)NS(=O)(=O)c7ccc(N[C@H](CCN(C)C)CSc8ccccc8)c([N+](=O)[O-])c7)cc6)CC5)c4)CC3)CC2)C(C)(C)C)cc1 [I-17] |  | > 30 µM |
|  |  |  |  | > 3 µM | Cc1ncsc1-c1ccc([C@H](C)NC(=O)[C@@H]2C[C@@H](O)CN2C(=O)[C@@H](NC(=O)C2CCN(c3ccc(NC(=O)c4ccc(-c5ccc(Cl)cc5)c([C@@H](O)C5CCN(c6ccc(C(=O)NS(=O)(=O)c7ccc(N[C@H](CCN(C)CCO)CSc8ccccc8)c(S(=O)(=O)C(F)(F)F)c7)cc6)CC5)c4)cc3)CC2)C(C)(C)C)cc1 [I-123] |  | > 30 µM |
|  |  |  |  | > 3 µM | Cc1ncsc1-c1ccc([C@H](C)NC(=O)[C@@H]2C[C@@H](O)CN2C(=O)[C@@H](NC(=O)CCC2CCN(CCCNc3ccc(S(=O)(=O)NC(=O)c4ccc(N5CCN([C@@H](O)c6ccccc6-c6ccc(Cl)cc6)CC5)cc4Oc4cnc5[nH]ccc5c4)cc3S(=O)(=O)C(F)(F)F)CC2)C(C)(C)C)cc1 [I-128] |  | > 30 µM |
|  |  |  |  | > 3 µM | Cc1ncsc1-c1ccc([C@H](C)NC(=O)[C@@H]2C[C@@H](O)CN2C(=O)[C@@H](NC(=O)CCCCCC(=O)NCCCNc2ccc(S(=O)(=O)NC(=O)c3ccc(N4CCN(Cc5ccccc5-c5ccc(Cl)cc5)CC4)cc3Oc3cnc4[nH]ccc4c3)cc2S(=O)(=O)C(F)(F)F)C(C)(C)C)cc1 [I-62] |  | > 30 µM |
|  |  |  |  | > 3 µM | Cc1ncsc1-c1ccc([C@H](C)NC(=O)[C@@H]2C[C@@H](O)CN2C(=O)[C@@H](NC(=O)CCCCCC(=O)N(C)CCCNc2ccc(S(=O)(=O)NC(=O)c3ccc(N4CCC([C@@H](O)c5ccccc5-c5ccc(Cl)cc5)CC4)cc3Oc3cnc4[nH]ccc4c3)cc2S(=O)(=O)C(F)(F)F)C(C)(C)C)cc1 [I-68] |  | > 30 µM |
|  |  |  |  | 0.1 to 1 µM | C#Cc1ccc([C@H](C)NC(=O)[C@@H]2C[C@@H](O)CN2C(=O)[C@@H](NC(=O)CCCCCCC(=O)N2CCN(C[C@]3(C)CCC(c4ccc(Cl)cc4)=C(CN4CCN(c5ccc(C(=O)NS(=O)(=O)c6ccc(NCCCN7CCOCC7)c(S(=O)(=O)C(F)(F)F)c6)c(Oc6cnc7[nH]ccc7c6)c5)CC4)C3)CC2)C(C)(C)C)cc1 [I-138] |  | 10 to 30 µM |
